The assay concerns cultured human mast cells (CHMC). Description: CHMC low cell density IgE activation: tryptase assay. The class given is cell-based. In outline: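 Low-density CHMC, 1000-1500 cells/well in MT; 1 hr 37 °C; anti-IgE challenge 30 min 37 °C; supernatant tryptase via fluorogenic substrate, 30 min RT.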
The mark [1] stands for this setting: low cell density, IgE activation, 8 pt, read-out: LD Tryptase, CHMC, IgE, 8 pt.
Setting [2] is: Homo sapiens, Mast cell, low cell density CHMC, IgE activation, tryptase, 3 pt, read-out: LD Tryptase, CHMC, IgE, 3 pt.
The mark [3] stands for this setting: low cell density CHMC, IgE activation, tryptase, 3 pt, read-out: LD Tryptase, CHMC, IgE, 3 pt.
Setting [4] is: low cell density CHMC, IgE activation, tryptase, 8 pt, read-out: LD Tryptase, CHMC, IgE, 8 pt.
Where [5] appears, read: Homo sapiens, Mast cell, low cell density CHMC, IgE activation, tryptase release, 3 pt, read-out: LD Tryptase, CHMC, IgE, 3 pt.
[6] abbreviates: Homo sapiens, Mast cell, low cell density CHMC, IgE activation, tryptase release, 8 pt, read-out: LD Tryptase, CHMC, IgE, 8 pt.
The mark [7] stands for this setting: Homo sapiens, Mast cell, low cell density CHMC, IgE activation, tryptase, 8 pt, read-out: LD Tryptase, CHMC, IgE, 8 pt.
The mark [8] stands for this setting: low cell density CHMC, IgE activation, tryptase readout, 8 pt, read-out: LD Tryptase, CHMC, IgE, 8 pt.
Setting [9] is: Homo sapiens, Mast cell, low cell density, IgE activation, 3 pt, read-out: LD Tryptase, CHMC, IgE, 3 pt.
The mark [10] stands for this setting: Homo sapiens, Mast cell, low cell density, IgE activation, 8 pt, read-out: LD Tryptase, CHMC, IgE, 8 pt.
Setting [11] is: low cell density CHMC, IgE activation, tryptase readout, 3 pt, read-out: LD Tryptase, CHMC, IgE, 3 pt.

Where a name gives a salt, the structure may show the parent alone. Read-outs that look alike come from different tables or passages of the source.

With `C[C@@H]1Oc2ccc(Nc3nc(Nc4ccc5c(c4)nc(N4CCOCC4)n5C)ncc3F)cc2NC1=O` [Compound 945, (S)-5-Fluoro-N2-[1-methyl-2-(4-morpholino)benzimidazol-5-yl]-N4-(2-methyl-3-oxo-2H,4H-benz[1,4]oxazin-6-yl)-2,4-pyrimidinediamine], the IC50 is, setting by setting: (low cell density, IgE activation, 3 pt, read-out: LD Tryptase, CHMC, IgE, 3 pt) less than 10 µM; under setting [1], less than 10 µM.

For `Cc1cc(N2CCN(C)CC2)ncc1Nc1ncc(F)c(NC2CCCC2)n1` [Compound 1246], the IC50 under setting [2] is greater than 10 µM.

As to `Cn1c(CN2CCOCC2)nc2cc(Nc3ncc(F)c(Nc4ccc5c(c4)NC(=O)C(C)(C)O5)n3)ccc21` [Compound 956, N4-(2,2-Dimethyl-3-oxo-4H-benz[1,4]oxazin-6-yl)-5-fluoro-N2-[1-methyl-2-(4-morpholinomethyl)benzimidazol-5-yl]-2,4-pyrimidinediamine], the IC50 under setting [1] was less than 10 µM.

As for “5-Fluoro-N2,N4-bis (4-[N-[methoxycarbonylmethylene]aminocarbonyl]phenyl)-2,4-pyrimidinediamine [Compound 1332]”, the IC50 was less than 10 µM under setting [3] and less than 10 µM under setting [4].

Regarding `COc1ccc(Nc2nc(Nc3ccc4c(cnn4CCCN4C(=O)CCCC4=O)c3)ncc2F)cc1Cl` [Compound 858, N4-(3-Chloro-4-methoxyphenyl)-N2-[1-[3-(2,6-dioxopiperidino]propyl)indazol-5-yl]-5-fluoro-2,4-pyrimidinediamine], the IC50 runs as follows: under setting [5], less than 10 µM; under setting [6], less than 10 µM.

For the molecule `CC1(C)Oc2ccc(Nc3ncc(F)c(Nc4ccc5c(n4)NC(=O)C(C)(C)O5)n3)nc2NC1=O` [Compound 693, N2, N4-Bis (2,2-dimethyl-3-oxo-4H-5-pyrid[1,4]oxazin-6-yl)-5-fluoro-2,4-pyrimidinediamine], the IC50 under setting [3] is less than 10 µM.

Regarding `C[C@H]1Oc2ccc(Nc3nc(Nc4ccc(C(N)=O)cc4)ncc3F)cc2NC1=O` [Compound 1265], the IC50 under setting [7] was less than 10 µM.

In the case of `COc1cccc(Nc2ncc(F)c(Nc3ccc4c(n3)NC(=O)CO4)n2)c1C` [Compound 1061, 5-Fluoro-N2-(3-methoxy-2-methylphenyl)-N4-(3-oxo-2H,4H-5-pyrid[1,4]oxazin-6-yl)-2,4-pyrimidinediamine], the IC50 under setting [8] was less than 10 µM.

Consider `CNC(=O)COc1cccc(Nc2ncc(F)c(NCC3COc4ccccc4O3)n2)c1` (centres unmarked) [Compound 1257, N4-[ (2,3-Dihydro-1,4-benzodioxan-2-yl)methyl]-5-fluoro-N2-[3-(N-methylamino)carbonylmethyleneoxyphenyl]-2,4-pyrimidinediamine], for which the IC50 under setting [4] is less than 10 µM.

Regarding `Cc1nc2cc(Nc3ncc(F)c(Nc4ccc5c(n4)NC(=O)C(C)(C)O5)n3)ccc2n1C` [Compound 898, N2-(1,2-Dimethylbenzimidazol-5-yl)-N4-(2,2-dimethyl-3-oxo-4H-5-pyrid[1,4]oxazin-6-yl)-5-Fluoro-2,4-pyrimidinediamine], the IC50 is, setting by setting: under setting [9], less than 10 µM; under setting [10], less than 10 µM.

In the case of `CCOP(=O)(NCCCn1ncc2cc(Nc3ncc(F)c(Nc4ccc(OC)c(Cl)c4)n3)ccc21)OCC` [Compound 847, N4-(3-Chloro-4-methoxyphenyl)-N2-[1-(3-(diethylphosphonamido)propyl]indazol-5-yl]-5-fluoro-2,4-pyrimidinediamine], under “low cell density CHMC, IgE activation, tryptase release, 8 pt, read-out: LD Tryptase, CHMC, IgE, 8 pt”, the IC50 is less than 10 µM.

For the molecule `Cc1cc(Nc2ncc(F)c(Nc3ccc4c(n3)NC(=O)CO4)n2)cc(C)c1O` [Compound 1069, N2-(3,5-Dimethyl-4-hydroxyphenyl)-5-fluoro-N4-(3-oxo-2H,4H-5-pyrid[1,4]oxazin-6-yl)-2,4-pyrimidinediamine], the IC50 under setting [8] was less than 10 µM.

Regarding `CCCCn1ncc2ccc(Nc3ncc(F)c(Nc4ccc(F)c(OC)c4)n3)cc21` [Compound 717, N2-(1-n-Butylindazol-6-yl)-5-fluoro-N4-(4-fluoro-3-methoxyphenyl)-2,4-pyrimidinediamine], the IC50 under setting [2] is less than 10 µM.

As to `COc1ccc(Nc2ncc(F)c(Nc3ccc4c(n3)NC(=O)[C@H](C)O4)n2)cc1Cl` [Compound 1081, (S)-N2-(3-Chloro-4-methoxyphenyl)-5-fluoro-N4-(2-methyl-3-oxo-2H,4H-5-pyrid[1,4]oxazin-6-yl)-2,4-pyrimidinediamine], the IC50 under setting [11] is less than 10 µM and the IC50 under setting [8] is less than 10 µM.

Consider `COc1cccc(Nc2ncc(F)c(Nc3ccc4c(n3)NC(=O)C(C)(C)O4)n2)c1C` [Compound 1065, N4-(2,2-Dimethyl-3-oxo-4H-5-pyrid[1,4]oxazin-6-yl)-5-fluoro-N2-(3-methoxy-2-methylphenyl)-2,4-pyrimidinediamine], for which the IC50 under setting [11] was less than 10 µM.

As to `Fc1cnc(Nc2cc(Cl)cc(Cl)c2)nc1Nc1ccc2c(c1)OC(F)(F)C(F)(F)O2` [Compound 360], the IC50 under setting [3] is greater than 10 µM.

With `Fc1cnc(Nc2ccc3cn[nH]c3c2)nc1NCC1COc2ccccc2O1` (centres unmarked) [Compound 1260, N4-[ (2,3-Dihydro-1,4-benzodioxan-2-yl)methyl]-5-fluoro-N2-(indazol-6-yl)-2,4-pyrimidinediamine], the IC50 under setting [4] was less than 10 µM.

`COC(=O)c1cc(Nc2ncc(F)c(Nc3cc(C(=O)OC)cc(-c4ncco4)c3)n2)cc(-c2ncco2)c1` [Compound 527]: the IC50 under setting [9] is less than 10 µM.

For the molecule `COC(=O)c1ccc(Nc2ncc(F)c(Nc3ccc(OC)c(Cl)c3)n2)cc1` [Compound 1322], the IC50 under setting [7] is less than 10 µM.

In the case of “N4- (3,4-Dichlorophenyl)-5-fluoro-N2-[2- (4-morpholinomethyl)-1H-benzimidazol-5-yl]-2,4-pyrimidinediamine [Compound 959]”, the IC50 under setting [1] was less than 10 µM.

Turning to `COc1ccc(Nc2nc(Nc3ccc4[nH]c(C(F)(F)F)nc4c3)ncc2F)nc1Cl` [Compound 883], the IC50 under setting [9] was less than 10 µM.

Turning to `CNC(=O)COc1cccc(Nc2ncc(F)c(Nc3ccc4c(n3)NC(=O)C(C)(C)O4)n2)c1` [Compound 984, N4-(2,2-Dimethyl-3-oxo-4H-5-pyrid[1,4]oxazin-6-yl)-5-fluoro-N2-[3-(N-methylamino)carbonylmethyleneoxyphenyl]-2,4-pyrimidinediamine Benzensulfonic Acid Salt], the IC50 (Homo sapiens, Mast cell, read-out: LD Tryptase, CHMC, IgE, 3 pt) was less than 10 µM and the IC50 (Homo sapiens, Mast cell, read-out: LD Tryptase, CHMC, IgE, 8 pt) was less than 10 µM.

`CN1CCN(c2ccc(Nc3ncc(F)c(Nc4ccc5c(n4)NCCO5)n3)cc2Cl)CC1` [Compound 1197, N2-[3-Chloro-4-(4-methylpiperazino)phenyl]-N4-(3,4-dihydro-2H,4H-5-pyrid[1,4]oxazin-6-yl)-5-fluoro-2,4-pyrimidinediamine]: the IC50 is less than 10 µM under setting [3] and less than 10 µM under setting [4].

Regarding `CNC(=O)COc1cccc(Nc2ncc(F)c(Nc3ccc4ccn(C(=O)NC)c4c3)n2)c1` [Compound 327, 5-Fluoro-N4-[1-(N-methylamino)carbonylindol-6-yl]-N2-[3-(N-methylamino)carbonylmethyleneoxyphenyl]-2,4-pyrimidinediamine], the IC50 (low cell density CHMC, IgE activation, tryptase release, 3 pt, read-out: LD Tryptase, CHMC, IgE, 3 pt) is less than 10 µM.

For `Cc1cc(C)cc(Nc2ncc(F)c(Nc3ccc4c(c3)NC(=O)C(C)S4(=O)=O)n2)c1` (centres unmarked) [Compound 264], the IC50 runs as follows: under setting [5], less than 10 µM; under setting [6], less than 10 µM.

For the molecule `CCN(CC)CCNC(=O)c1ccc(Nc2ncc(F)c(NC3CCCC3)n2)cc1` [Compound 1350, N4-(Cyclopentyl)-N2-(4-[2-(N,N-diethylamino]ethyleneaminocarbonyl)phenyl)-5-fluoro-2,4-pyrimidinediamine], the IC50 runs as follows: under setting [3], greater than 10 µM; under setting [4], less than 10 µM.

Regarding `COc1ccc(Nc2nc(Nc3ccc4cnn(C)c4c3)ncc2F)nc1Cl` [Compound 885], under setting [9], the IC50 is less than 10 µM.

`Fc1cnc(Nc2ccc3c(cnn3CC3CCC3)c2)nc1Nc1ccc(Cl)c(Cl)c1` [Compound 727, N2-[1-(Cyclobutylmethyl)indazol-5-yl]-N4-(3,4-dichlorophenyl)-5-fluoro-2,4-pyrimidinediamine]: under setting [2], the IC50 is less than 10 µM.

For the molecule `COc1ccc(Nc2nc(Nc3ccc4cnn(CC5CCCCC5)c4c3)ncc2F)cc1Cl` [Compound 722, N4-(3-Chloro-4-methoxyphenyl)-N2-[1-(cyclohexylmethyl)indazol-6-yl]-5-fluoro-2,4-pyrimidinediamine], the IC50 reads like this: under setting [2], less than 10 µM; under setting [7], less than 10 µM.

Take `COc1ccc(Nc2nc(Nc3ccc4c(c3)NC(=O)C(C)(C)O4)ncc2F)nc1Cl` [Compound 889]: the IC50 under setting [9] is less than 10 µM.

Consider `Cc1cc(Nc2ncc(F)c(Nc3ccc4c(c3)OC(F)(F)O4)n2)cc(C(F)(F)F)c1` [Compound 569], for which, for the setting “low cell density CHMC, IgE activation, tryptase release, 3 point, read-out: LD Tryptase, CHMC, IgE, 3 pt”, the IC50 is less than 10 µM.

Regarding `COc1ccc(Nc2ncc(F)c(Nc3ccc4c(c3)NC(=O)C(C)S4)n2)cc1F` (racemic) [Compound 298], the IC50 under setting [5] was less than 10 µM and the IC50 under setting [6] was less than 10 µM.

Consider `Cc1cc(C)cc(Nc2nc(Nc3cc(Cl)cc(Cl)c3)ncc2F)c1` [Compound 556], for which the IC50 under setting [9] is less than 10 µM and the IC50 under setting [10] is less than 10 µM.

For `O=C1CSc2ccc(Nc3nc(Nc4cccc(O)c4)ncc3F)cc2N1` [Compound 281], the IC50 by setting is: under setting [5], less than 10 µM; under setting [6], less than 10 µM.
